The target in this test is T1, soybean lipoxygenase (LOX) (Glycine max, UniProt P08170).
T1 construct: gene LOX1.1
T1 sequence (P08170 1-839): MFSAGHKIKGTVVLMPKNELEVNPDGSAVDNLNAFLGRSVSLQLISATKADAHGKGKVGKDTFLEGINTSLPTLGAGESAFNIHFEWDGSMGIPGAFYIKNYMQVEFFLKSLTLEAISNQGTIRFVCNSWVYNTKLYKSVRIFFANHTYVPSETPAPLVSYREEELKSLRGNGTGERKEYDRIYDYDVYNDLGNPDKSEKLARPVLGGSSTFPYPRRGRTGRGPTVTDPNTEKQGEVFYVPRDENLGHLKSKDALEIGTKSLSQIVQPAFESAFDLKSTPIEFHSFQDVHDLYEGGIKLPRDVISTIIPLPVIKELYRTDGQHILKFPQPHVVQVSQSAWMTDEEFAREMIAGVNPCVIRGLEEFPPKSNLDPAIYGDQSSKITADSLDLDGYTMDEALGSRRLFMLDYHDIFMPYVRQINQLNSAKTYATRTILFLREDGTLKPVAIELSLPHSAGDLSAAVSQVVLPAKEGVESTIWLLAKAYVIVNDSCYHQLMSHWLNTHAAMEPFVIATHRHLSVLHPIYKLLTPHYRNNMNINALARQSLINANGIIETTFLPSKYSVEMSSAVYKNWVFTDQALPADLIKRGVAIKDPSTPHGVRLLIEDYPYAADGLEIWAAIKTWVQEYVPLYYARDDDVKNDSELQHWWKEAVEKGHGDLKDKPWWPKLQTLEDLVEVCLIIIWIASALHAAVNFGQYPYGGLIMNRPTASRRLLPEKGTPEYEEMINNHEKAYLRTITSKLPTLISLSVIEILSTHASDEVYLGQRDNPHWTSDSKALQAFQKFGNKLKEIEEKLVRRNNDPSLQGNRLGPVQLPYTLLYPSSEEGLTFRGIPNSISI
In words: soybean LOX inhibition, linoleate oxidation monitored at […] nm. The format is biochemical.
As for `C/[N+]([O-])=C/c1ccc(-c2ccccc2)cc1` [compound 1, (Z)-1-([1,1′-Biphenyl]-4-yl)-N-methylmethanimine oxide], half-maximal inhibition (IC50) was put at 100 µM.
`[O-]/[N+](=C\c1ccc(-c2ccccc2)cc1)Cc1ccccc1` [compound 3, (Z)-1-([1,1′-Biphenyl]-4-yl)-N-benzylmethanimine oxide] came in with an IC50 of 57.5 µM.
The same measure for `CC(C)(C)/[N+]([O-])=C/c1ccc(-c2ccc(/C=[N+](\[O-])C(C)(C)C)cc2)cc1` [compound 5, (1Z,1′Z)-1,1′-([1,1′-Biphenyl]-4,4′-diyl)bis(N-tert-butylmethanimineoxide)]: 100 µM.

One may read the IC50 as the concentration that gives 50% inhibition. A high value points to weaker potency in that assay.

(Values after article PMC7926640, “Synthesis, Neuroprotection, and Antioxidant Activity of 1,1′-Biphenylnitrones as α-Phenyl-N-tert-butylnitrone Analogues in In Vitro Ischemia Models” (Molecules, 2021).)
